One block for each compound: values may come before it.
Experiments:
[1] = molecular target: T1, progesterone receptor (Oryctolagus cuniculus, UniProt P06186); test: Relative binding affinity to progesterone receptor in uterine cytosol (displacement of tritium-labeled progesterone); parameters: species or system rabbit (estrogen-primed immature female)
T1 construct: in the cytosol obtained from estrogen-primedimmature rabbit uterus; from tissue; host or cells: uterine cytosol of estrogen-primed immature female rabbits
T1 sequence (P06186 1-930): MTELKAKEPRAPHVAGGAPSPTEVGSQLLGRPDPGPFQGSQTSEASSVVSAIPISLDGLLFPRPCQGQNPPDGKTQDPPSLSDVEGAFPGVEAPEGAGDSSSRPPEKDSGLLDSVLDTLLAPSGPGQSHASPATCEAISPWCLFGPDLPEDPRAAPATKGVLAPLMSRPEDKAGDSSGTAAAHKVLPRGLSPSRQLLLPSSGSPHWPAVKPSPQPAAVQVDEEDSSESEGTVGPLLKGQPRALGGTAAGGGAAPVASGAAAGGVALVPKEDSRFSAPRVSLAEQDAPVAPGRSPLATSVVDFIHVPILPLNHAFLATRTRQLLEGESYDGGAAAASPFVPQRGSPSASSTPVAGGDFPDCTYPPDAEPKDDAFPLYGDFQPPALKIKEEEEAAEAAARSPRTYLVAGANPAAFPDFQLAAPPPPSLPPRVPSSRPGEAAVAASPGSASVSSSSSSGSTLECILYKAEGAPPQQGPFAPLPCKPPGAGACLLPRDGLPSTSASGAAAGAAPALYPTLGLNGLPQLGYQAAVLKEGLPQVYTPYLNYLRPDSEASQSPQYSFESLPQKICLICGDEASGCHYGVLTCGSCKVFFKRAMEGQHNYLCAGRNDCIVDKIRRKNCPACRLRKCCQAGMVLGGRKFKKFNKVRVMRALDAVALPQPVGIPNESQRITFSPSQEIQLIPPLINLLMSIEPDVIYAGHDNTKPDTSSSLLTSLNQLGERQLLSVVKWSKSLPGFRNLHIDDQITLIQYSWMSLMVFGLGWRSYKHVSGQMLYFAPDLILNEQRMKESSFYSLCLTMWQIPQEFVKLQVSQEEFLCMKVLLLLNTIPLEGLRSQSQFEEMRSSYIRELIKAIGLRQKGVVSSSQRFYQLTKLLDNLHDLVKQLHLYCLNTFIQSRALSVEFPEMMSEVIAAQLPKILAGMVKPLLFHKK
Experimental: (§1) The in vitro activity of the subject compounds was determined by measuring the binding affinities (RBA) of these compounds relative to progesterone for the progesterone receptor in the cytosol obtained from estrogen-primedimmature rabbit uterus and by measuring the RBA relative to dexamethasone for the glucocorticoid receptor from thymus of adrenalectomized rats. These assays were carried out by the procedures of J. R. Reel et al., Fertility and Sterility, 31, 552 (1979) (progesterone) and G. P. Chrousos et al., Endocrinology, 107, 472 (1980) (glucocorticoid).
^a Relative ability to displace tritiumlabeled progesterone from the
receptor in uterine cytosol from estrogenprimed immature female rabbits a
compared with progesterone (=100).

[2] = molecular target: T2, glucocorticoid receptor (Rattus norvegicus, UniProt P06536); test: Relative binding affinity to glucocorticoid receptor of thymus (displacement of tritium-labeled dexamethasone); parameters: species or system rat (adrenalectomized); conditions: relative to dexamethasone (=100)
T2 construct: glucocorticoid receptor from thymus of adrenalectomized rats; from tissue; host or cells: thymus of adrenalectomized rats
T2 sequence (P06536 1-795): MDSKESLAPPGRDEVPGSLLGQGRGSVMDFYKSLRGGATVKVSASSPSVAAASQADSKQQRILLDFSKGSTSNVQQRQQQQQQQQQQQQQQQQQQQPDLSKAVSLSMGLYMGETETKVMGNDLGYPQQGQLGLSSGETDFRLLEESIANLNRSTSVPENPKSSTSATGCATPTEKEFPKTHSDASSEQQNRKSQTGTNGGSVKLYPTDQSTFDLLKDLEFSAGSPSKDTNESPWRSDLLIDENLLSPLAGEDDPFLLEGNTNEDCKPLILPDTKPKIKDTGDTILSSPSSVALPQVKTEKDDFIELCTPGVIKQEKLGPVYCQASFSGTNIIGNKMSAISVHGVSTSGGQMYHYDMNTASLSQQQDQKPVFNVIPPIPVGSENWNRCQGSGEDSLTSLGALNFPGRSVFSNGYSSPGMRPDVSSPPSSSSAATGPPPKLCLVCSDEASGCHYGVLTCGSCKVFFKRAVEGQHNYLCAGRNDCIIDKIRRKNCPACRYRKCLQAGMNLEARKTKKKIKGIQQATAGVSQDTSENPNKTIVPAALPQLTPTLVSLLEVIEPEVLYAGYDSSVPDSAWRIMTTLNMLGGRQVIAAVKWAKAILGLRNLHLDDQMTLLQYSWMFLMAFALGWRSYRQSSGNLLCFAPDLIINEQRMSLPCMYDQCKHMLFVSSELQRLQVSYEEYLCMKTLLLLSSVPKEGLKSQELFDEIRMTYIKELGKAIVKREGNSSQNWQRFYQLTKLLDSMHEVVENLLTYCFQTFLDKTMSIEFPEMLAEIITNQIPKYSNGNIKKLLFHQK
Experimental: as §1
^b Relative ability to displace tritiumlabeled dexamethasone from the
receptor of the thymus of adrenalectomized rats as compared to […]

[3] = tested on: endometrial response due to subcutaneous administration of progesterone; test: Anti-McGinty intrauterine antiprogestational test; format: in vivo, estrogen-primed immature female rabbits; conditions: intrauterine
Experimental: The antiprogestational activity of the compounds was studied after both intrauterine and oral administration. In each case the compound was tested for its ability to inhibit the endometrial response due to subcutaneous administration of progesterone to estrogen-primed immature female rabbits. The methodology used for the intrauterine test has been described by D. A. McGinty et al. See Endocrinology, 24, 829 (1939). For oral administration of test compounds, the method used was analogous to that of Clauberg. See Clauberg, Zentr. Gynakol., 54, 2757 (1930) as modified by McPhail J. Physiol. (London), 83, 145 (1935). Each active compound was characterized by a dose-related ability to block the progestational effect of simultaneously administered progesterone. When the percent inhibition was plotted versus the log of the dose, linear relationships were obtained. Linear regression analysis permitted calculation of the ED50 and ED90 values (the doses required for 50% and 90% inhibition of the progesterone effect, respectively). The actual dose which gave 90% or more inhibition is also given, although this value is probably less accurate than the calculated values which are based on the dose-response line. […] Since the intrauterine administration bypasses most of the drug-metabolizing systems of the body, especially the liver, intrinsic activity is expected to correlate reasonably well with binding activity to the receptor, according to currently held hypotheses regarding receptor binding.

[4] = tested on: endometrial proliferation (McPhail Index); test: Progestational activity, intrauterine (McGinty assay); format: in vivo, estrogen-primed immature female rabbits; conditions: right horn control 0
Experimental: In this assay estrogen-primed immature female rabbits are treated by injection of the test compound into the left horn of the uterus while the right horn is left untreated as a control. Each horn is then scored for endometrial proliferation by the McPhail Index. […] It indicates a possible need for reassessment of the current hypotheses regarding the effect of this substituent on antagonist versus agonist activity.

[5] = tested on: estrogen-insensitive T47Dco human breast cancer cells; conditions: Horwitz 1985; cited from earlier work
[6] = tested on: Cushing's syndrome; conditions: cited from earlier work
[7] = comparison of mefipristone, ZK 98.299 (II), ZK 98.734 (III); cited from earlier work
[8] = from % Inhib = a + b · ln dose, results variable, data from "best run"

- P-RBA/G-RBA ([1]; ratio of RBA values for progesterone receptor to glucocorticoid receptor): 0.65
- Progestin RBA ([1]; relative to progesterone (=100), rabbit uterine cytosol): 80
- Glucocort. RBA [2]: 124
SMILES: CC[C@@H]1C[C@H]2[C@@H]3CCC4=CC(=O)CCC4=C3[C@@H](c3ccc(N(C)C)cc3)C[C@]2(C)[C@H]1C(C)=O [Compound 19, 16α-Ethyl-118-(4-N,N-dimethylaminophenyl)-19-norpregna-4,9-diene-3,20-dione]
- ED90 (actual dose) ([3]; footnote c: no inhibition at tested dose): < 80 µg
- McPhail Index, Left Horn (Treated) ([4]; dose 2.0 μg intrauterine): 3.0 ± 0.32
- McPhail Index, Left Horn (Treated) ([4]; dose 4.0 μg intrauterine): 3.7 ± 0.12
- McPhail Index, Left Horn (Treated) ([4]; dose 8.0 μg intrauterine): 3.6 ± 0.10

SMILES: CC#C[C@]1(O)CC[C@H]2[C@@H]3CCC4=CC(=O)CCC4=C3[C@@H](c3ccc(N(C)C)cc3)C[C@@]21C [RU-486, reference compound]
- growth-inhibitory properties [5]: exhibits growth-inhibitory properties
- treatment of Cushing's syndrome ([6]; Nieman et al): successfully used
- antiglucocorticoid activity ([6]; in vivo): very significant antiglucocorticoid activity
- ED90 (actual dose) ([3]; actual dose giving ≥ 90% inhibition, results variable, data from "best run"): 1.0 µg
- ED50 [3, 8]: 0.28 µg
- ED90 (calculated) [3, 8]: 0.87 µg

SMILES: CN(C)c1ccc(C2CC3(C)C(CCC3(O)CCCO)C3CCC4=CC(=O)CCC4=C23)cc1 (stereo not drawn) [ZK 98.299]
- antiglucocorticoid activity relative to antigestagenic potency (rank) [7]: intermediate position

SMILES: CN(C)c1ccc([C@H]2C[C@@]3(C)[C@@H](CC[C@@]3(O)/C=C\CO)[C@@H]3CCC4=CC(=O)CCC4=C32)cc1 [ZK 98.734]
- antiglucocorticoid activity relative to antigestagenic potency (rank) [7]: least active
